Patent US20040024024A1, “Aromatic sulfone hydroxamates and their use as protease inhibitors” (priority 2001, published 2004)
Values belong to the molecule of their own block, whether it stands above or below them.

How the values were obtained:
Test in all cases: In vitro MMP inhibition, IC50 determination (fluorogenic substrate I)
Assay type in all cases: biochemical
Human recombinant MMP-1 = molecular target: T1, Human recombinant MMP-1 (Homo sapiens, UniProt P03956)
T1 construct: made in house; host or cells: MMP-1-transfected HT-1080 cells (spent media)
T1 sequence (P03956 100-469): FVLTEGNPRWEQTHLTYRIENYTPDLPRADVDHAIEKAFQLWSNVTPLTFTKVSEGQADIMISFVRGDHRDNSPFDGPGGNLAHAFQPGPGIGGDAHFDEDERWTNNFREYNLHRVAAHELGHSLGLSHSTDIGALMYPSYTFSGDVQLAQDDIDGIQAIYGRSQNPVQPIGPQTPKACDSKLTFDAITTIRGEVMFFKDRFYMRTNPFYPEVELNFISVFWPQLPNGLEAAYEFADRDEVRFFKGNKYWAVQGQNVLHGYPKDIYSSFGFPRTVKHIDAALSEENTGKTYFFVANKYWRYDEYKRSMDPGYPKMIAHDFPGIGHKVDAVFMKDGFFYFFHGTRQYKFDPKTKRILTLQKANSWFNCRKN
Description: (§1) Several hydroxamates and salts thereof were analyzed in in vitro assays to determine their ability to inhibit the MMP cleavage of peptide substrates. Inhibition (Ki) and IC50 constants were calculated from the assayed hydroxamate-MMP interactions.
(§2) Human recombinant MMP-1, MMP-2, MMP-9, MMP-13, and MMP-14 were used in this assay. All enzymes were prepared in Assignee's laboratories following usual laboratory procedures. Protocols for the preparation and use of these enzymes are available in the scientific literature. See, e.g., Enzyme Nomenclature (Academic Press, San Diego, Calif., 1992) (and the citations therein). See also, Frije et al., J. Biol. Chem., 26(24), 16766-73 (1994).
The MMP-1 proenzyme was purified from the spent media of MMP-1-transfected HT-1080 cells provided by Dr. Harold Welgus of Washington University (St. Louis, Mo.). The protein was purified on a zinc chelating column.
(§3) All MMPs were activated using 4-aminophenylmercuric acetate (“APMA”, Sigma Chemical, St. Louis, Mo.) or trypsin. MMP-9 also was activated using human recombinant MMP-3 (purified in Assignee's laboratory following standard cloning and purification techniques).
(§4) Two fluorogenic, methoxycoumarin-containing polypeptide substrates were used in the MMP inhibition assays:
(§5) MCA-ProLeuGlyLeuDpaAlaArgNH2 (I)
(§6) Here, “Dpa” is 3-(2,4-dinitrophenyl)-L-2,3-diaminopropionyl group, and “MCA” is 7-methoxycoumarin-4-yl acetyl. Substrate (I) was purchased from Baychem (Redwood City, Calif.), and substrate II was prepared Assignee's laboratory. Substrate I was used in the IC50 determination assays, while substrate II was used in the Ki determination assays. In the absence of MMP inhibitory activity, either substrate is cleaved at the Gly-Leu peptide bond. This cleavage separates the highly fluorogenic peptide from the 2,4-dinitrophenyl quencher, thus resulting in increase of fluorescent intensity.
(§7) The stock solutions of the assayed hydroxamates (or salts thereof) were prepared in 1% dimethyl sulfoxide (DMSO). These stock solutions were diluted in Buffer A (100 mM Tris-HCl, 100 mM NaCl, 10 mM CaCl2, 0.05% polyoxyethylene 23 lauryl ether, pH 7.5) to obtain solutions with different hydroxamate concentrations, i.e., assay solutions with different concentrations of the assayed MMP inhibitory compound. The experiment controls contained the same amount of Buffer A/DMSO as the assayed sample, but contained no hydroxamate (or salt thereof).
(§8) The assays from which the IC50 determinations were made were performed as follows. The MMPs were activated with either trypsin or APMA (4-aminophenylmercuric acetate, Sigma Chemical, St. Louis, Mo.). The assayed hydroxamate samples were, incubated in Microfluorrm White Plates (Dynatech, Chantilly, VA) and analyzed on a Perkin Elmer L550 plate reader (Norwalk, Conn.). The excitation wavelength was 328 nm, and the emission wavelength—415 nm. All samples (assayed hydroxamates and controls) were incubated in separate plates at room temperature in the presence of 4 μM of MMP substrate (I). As stated in the previous paragraph, samples containing varying concentrations of the same assayed hydroxamate were prepared. Inhibition was measured as a reduction in fluorescent intensity as a function of MMP inhibitor concentration.

Human recombinant MMP-2 = molecular target: T2, Human recombinant MMP-2 (Homo sapiens, UniProt P08253)
T2 construct: made in house; host or cells: MMP-2-transfected p2AHT2 cells
T2 sequence (P08253 110-660): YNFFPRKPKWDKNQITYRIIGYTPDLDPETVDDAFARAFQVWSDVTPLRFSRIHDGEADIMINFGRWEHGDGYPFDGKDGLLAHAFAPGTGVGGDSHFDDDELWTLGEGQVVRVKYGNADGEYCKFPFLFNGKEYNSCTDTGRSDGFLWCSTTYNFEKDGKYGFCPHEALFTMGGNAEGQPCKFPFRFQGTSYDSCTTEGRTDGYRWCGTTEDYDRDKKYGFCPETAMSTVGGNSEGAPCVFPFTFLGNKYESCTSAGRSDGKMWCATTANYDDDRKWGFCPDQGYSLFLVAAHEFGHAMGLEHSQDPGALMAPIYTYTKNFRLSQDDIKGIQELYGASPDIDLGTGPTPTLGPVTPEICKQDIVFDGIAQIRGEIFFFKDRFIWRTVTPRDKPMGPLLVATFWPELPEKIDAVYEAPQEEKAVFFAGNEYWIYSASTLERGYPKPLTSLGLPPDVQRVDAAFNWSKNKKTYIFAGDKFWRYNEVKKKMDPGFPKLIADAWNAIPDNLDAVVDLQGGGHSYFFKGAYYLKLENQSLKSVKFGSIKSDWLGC
Outline: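 IC50 was derived from the concentration-dependent fall in fluorescence (ex 328, em 415 nm) on Gly-Leu cleavage of 4 μM MCA/Dpa-quenched substrate I. Assays ran at room temperature in pH 7.5 Tris/NaCl/CaCl2/Brij buffer with MMP-2 activated by trypsin or APMA; inhibitors were diluted from 1% DMSO stocks.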

Human recombinant MMP-9 = molecular target: T3, Human recombinant MMP-9 (Homo sapiens, UniProt P14780)
T3 construct: made in house; host or cells: MMP-9-transfected HT1080 cells (spent media)
T3 sequence (P14780 107-707 limits assumed): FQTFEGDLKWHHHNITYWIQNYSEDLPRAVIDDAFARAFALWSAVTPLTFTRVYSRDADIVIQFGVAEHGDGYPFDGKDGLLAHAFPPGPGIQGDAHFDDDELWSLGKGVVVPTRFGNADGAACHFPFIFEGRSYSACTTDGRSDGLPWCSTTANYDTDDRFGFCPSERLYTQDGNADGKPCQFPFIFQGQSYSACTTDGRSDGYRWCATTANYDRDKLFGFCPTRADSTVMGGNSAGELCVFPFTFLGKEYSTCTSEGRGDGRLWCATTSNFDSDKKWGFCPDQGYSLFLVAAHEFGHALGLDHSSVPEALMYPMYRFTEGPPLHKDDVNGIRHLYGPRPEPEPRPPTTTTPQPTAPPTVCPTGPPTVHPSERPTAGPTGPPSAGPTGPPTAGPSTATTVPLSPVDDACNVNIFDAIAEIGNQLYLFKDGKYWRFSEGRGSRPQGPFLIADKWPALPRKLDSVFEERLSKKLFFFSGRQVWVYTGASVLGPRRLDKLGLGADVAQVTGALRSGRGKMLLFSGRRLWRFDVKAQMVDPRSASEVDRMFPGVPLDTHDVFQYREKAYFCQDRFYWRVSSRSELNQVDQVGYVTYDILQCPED
Description: as §1, §2
The MMP-9 proenzyme was purified by gelatin Sepharose chromatography from spent media of MMP-9-transfected HT1080 cells provided by Dr. Howard Welgus of Washington University (St. Louis, Mo.).
as §3, §4, §5, §6, §7, §8

Human recombinant MMP-13 = molecular target: T4, Human recombinant MMP-13 (Homo sapiens, UniProt P45452)
T4 construct: made in house; host or cells: baculovirus / insect cells
Outline: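 Fluorescence at 415 nm (excitation 328 nm) reports Gly-Leu cleavage of 4 μM quenched methoxycoumarin peptide substrate I. Human recombinant MMP-13, activated by trypsin or APMA, was incubated at room temperature with varied inhibitor concentrations in pH 7.5 Tris/NaCl/CaCl2 buffer; IC50 derived from reduced fluorescence.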

Human recombinant MMP-14 = molecular target: T5, Human recombinant MMP-14 (Homo sapiens, UniProt P50281)
T5 construct: The catalytic domain enzyme was expressed in E. coli inclusion bodies, solubilized in urea; made in house
Description: as §1, §2
The MMP-14 full length cDNA was provided by Dr. Gregory Goldberg of Washington University (St. Louis, Mo.). The catalytic domain enzyme was expressed in E. coli inclusion bodies, solubilized in urea, purified on a preparative […] reverse phase HPLC column, and then refolded in the presence of zinc acetate and purified for use.
as §3, §4, §5, §6, §7, §8

[1] = value outside parentheses (Ki in parenthesis)

Structure (SMILES): O=C(CCCCOc1ccc(S(=O)(=O)C2(C(=O)NO)CCOCC2)cc1)c1cccc(-c2ccccc2)c1 [Example 325]
IC50 (Human recombinant MMP-1; [1]): > 10000 nM
IC50 (Human recombinant MMP-2; [1]): 11 nM
IC50 (Human recombinant MMP-9; [1]): 4040 nM
IC50 (Human recombinant MMP-13; [1]): 0.5 nM
IC50 (Human recombinant MMP-14; [1]): > 10000 nM

Structure (SMILES): CC(C)c1ccc(-c2nnc(CCCOc3ccc(S(=O)(=O)C4(C(=O)NO)CCOCC4)cc3)o2)cc1 [Example 247]
IC50 (Human recombinant MMP-1; value outside parenthesis): 3610 nM
IC50 (Human recombinant MMP-2; value outside parenthesis): 445 nM
IC50 (Human recombinant MMP-9; value outside parenthesis): 341 nM
IC50 (Human recombinant MMP-13; value outside parenthesis): 1.1 nM
IC50 (Human recombinant MMP-14; value outside parenthesis): > 10000 nM

Structure (SMILES): O=C(NO)C1(S(=O)(=O)c2ccc(OCCCCCN3CCc4ccccc4C3)cc2)CCOCC1 [Example 360]
IC50 (Human recombinant MMP-1; [1]): > 10000 nM
IC50 (Human recombinant MMP-2; [1]): 9.7 nM
IC50 (Human recombinant MMP-9; [1]): 547 nM
IC50 (Human recombinant MMP-13; [1]): 6.4 nM
IC50 (Human recombinant MMP-14; [1]): 962 nM

Structure (SMILES): COCCN1CCC(C(=O)NO)(S(=O)(=O)c2ccc(OCCCCC(=O)c3ccc(N(C)C)cc3)cc2)CC1 [Example 248]
IC50 (Human recombinant MMP-1; value outside parenthesis): > 10000 nM
IC50 (Human recombinant MMP-2; value outside parenthesis): 15.7 nM
IC50 (Human recombinant MMP-9; value outside parenthesis): 106 nM
IC50 (Human recombinant MMP-13; value outside parenthesis): 0.2 nM
IC50 (Human recombinant MMP-14; value outside parenthesis): 1700 nM

Structure (SMILES): C[C@@H]1C(=O)N(CCCOc2ccc(S(=O)(=O)C3(C(=O)NO)CCOCC3)cc2)C(=O)N1c1ccccc1 [Example 145]
IC50 (Human recombinant MMP-1; value outside parenthesis): > 10000 nM
IC50 (Human recombinant MMP-2; value outside parenthesis): 817 nM
IC50 (Human recombinant MMP-9; value outside parenthesis): 9440 nM
IC50 (Human recombinant MMP-13; value outside parenthesis): 2 nM
IC50 (Human recombinant MMP-14; value outside parenthesis): > 10000 nM

Structure (SMILES): CCOc1ccc2nc(SCCOc3ccc(S(=O)(=O)C4(C(=O)NO)CCOCC4)cc3)sc2c1 [Example 330]
IC50 (Human recombinant MMP-1; [1]): > 10000 nM
IC50 (Human recombinant MMP-2; [1]): 262 nM
IC50 (Human recombinant MMP-9; [1]): 216 nM
IC50 (Human recombinant MMP-13; [1]): 16 nM
IC50 (Human recombinant MMP-14; [1]): 592 nM

Further lines, results first:

IC50 (Human recombinant MMP-1; value outside parentheses): > 10000 nM
IC50 (Human recombinant MMP-2; value outside parentheses): 316 nM
IC50 (Human recombinant MMP-9; value outside parentheses): 380 nM
IC50 (Human recombinant MMP-13; value outside parentheses): 6030 nM
IC50 (Human recombinant MMP-14; value outside parentheses): 3460 nM
Structure (SMILES): O=C(NO)C1(S(=O)(=O)c2ccc(OCCCn3nnc(-c4ccc(C(F)(F)F)cc4)n3)cc2)CCN(CC(F)(F)F)CC1 [Example 657]

IC50 (Human recombinant MMP-1; value outside parentheses): 3670 nM
IC50 (Human recombinant MMP-2; value outside parentheses): 76.6 nM
IC50 (Human recombinant MMP-9; value outside parentheses): 224 nM
IC50 (Human recombinant MMP-13; value outside parentheses): 0.95 nM
IC50 (Human recombinant MMP-14; value outside parentheses): > 10000 nM
Structure (SMILES): O=C(CCCOc1ccc(S(=O)(=O)C2(C(=O)NO)CCOCC2)cc1)N1CC[C@@H](c2ccccc2)[C@@H](O)C1 [Example 652]

IC50 (Human recombinant MMP-1; value outside parentheses): > 10000 nM
IC50 (Human recombinant MMP-2; value outside parentheses): 25.2 nM
IC50 (Human recombinant MMP-9; value outside parentheses): 49.9 nM
IC50 (Human recombinant MMP-13; value outside parentheses): 3.61 nM
IC50 (Human recombinant MMP-14; value outside parentheses): 3320 nM
Structure (SMILES): O=C(NO)C1(S(=O)(=O)c2ccc(OCCOCc3cccc(F)c3)cc2)CCOCC1 [Example 663]

IC50 (Human recombinant MMP-1; [1]): > 10000 nM
IC50 (Human recombinant MMP-2; [1]): 90 nM
IC50 (Human recombinant MMP-9; [1]): 49 nM
IC50 (Human recombinant MMP-13; [1]): 2.5 nM
IC50 (Human recombinant MMP-14; [1]): 6810 nM
Structure (SMILES): O=C(NO)C1(S(=O)(=O)c2ccc(OCCCSc3nc4ccc(Cl)cc4o3)cc2)CCOCC1 [Example 408]

IC50 (Human recombinant MMP-1; [1]): > 10000 nM
IC50 (Human recombinant MMP-2; [1]): 106 nM
IC50 (Human recombinant MMP-9; [1]): 255 nM
IC50 (Human recombinant MMP-13; [1]): 4.6 nM
IC50 (Human recombinant MMP-14; [1]): > 10000 nM
Structure (SMILES): CN(C)c1ccc(/C=C/CCCOc2ccc(S(=O)(=O)C3(C(=O)NO)CCOCC3)cc2)cc1 [Example 486]
